In article PMC9736874, “Development of Hydroxamate Derivatives Containing a Pyrazoline Moiety as APN Inhibitors to Overcome Angiogenesis” (Molecules, 2022):

How the values were obtained:
[1] = target: T1, porcine kidney aminopeptidase N (APN) (Sus scrofa, UniProt P15145); experiment: Enzymatic inhibition assay against APN in vitro (L-Leu-p-nitroanilide substrate); type: biochemical; details: soluble APN from porcine kidney microsomal, 37 °C, 30 min; triplicate, mean ± SD
T1 construct: purchased Enzo Life Sciences; host or cells: porcine kidney microsomes (tissue-derived)
T1 sequence (P15145 1-963): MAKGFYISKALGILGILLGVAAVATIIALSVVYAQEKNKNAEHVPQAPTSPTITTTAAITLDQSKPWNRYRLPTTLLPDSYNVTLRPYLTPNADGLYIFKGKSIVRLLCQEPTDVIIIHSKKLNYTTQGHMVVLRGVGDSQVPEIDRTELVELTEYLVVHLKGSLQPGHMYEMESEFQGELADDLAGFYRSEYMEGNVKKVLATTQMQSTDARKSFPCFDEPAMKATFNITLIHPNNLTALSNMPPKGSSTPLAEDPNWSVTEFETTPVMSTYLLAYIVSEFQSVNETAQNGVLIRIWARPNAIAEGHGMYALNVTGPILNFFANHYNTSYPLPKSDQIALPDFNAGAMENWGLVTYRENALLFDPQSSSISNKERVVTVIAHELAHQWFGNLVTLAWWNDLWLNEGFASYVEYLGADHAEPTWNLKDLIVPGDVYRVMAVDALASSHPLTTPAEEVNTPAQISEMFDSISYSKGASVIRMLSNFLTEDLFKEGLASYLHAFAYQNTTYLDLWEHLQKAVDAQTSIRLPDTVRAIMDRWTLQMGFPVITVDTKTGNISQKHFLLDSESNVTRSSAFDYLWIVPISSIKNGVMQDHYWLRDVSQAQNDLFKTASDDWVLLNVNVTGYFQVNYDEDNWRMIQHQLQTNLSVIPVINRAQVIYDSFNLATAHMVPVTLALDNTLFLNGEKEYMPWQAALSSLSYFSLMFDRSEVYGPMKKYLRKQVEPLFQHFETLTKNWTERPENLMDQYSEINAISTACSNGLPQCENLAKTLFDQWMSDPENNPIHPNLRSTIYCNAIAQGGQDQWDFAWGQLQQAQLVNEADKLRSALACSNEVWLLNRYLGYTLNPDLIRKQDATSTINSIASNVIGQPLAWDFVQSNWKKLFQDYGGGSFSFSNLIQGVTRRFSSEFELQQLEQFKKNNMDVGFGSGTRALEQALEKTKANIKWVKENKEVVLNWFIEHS
Protocol: The enzymatic inhibitory activities of target compounds were evaluated using L-Leu-p-nitroanilide (Sigma-Aldrich, St. Louis, MO, USA) as substrate and soluble APN from porcine kidney microsomal (Enzo Life Sciences, Farmingdale, NY, USA) as enzyme. Firstly, the substrate was dissolved in DMSO to a concentration of 16 mmol/L and the enzyme was dissolved in buffer solution of 50 mM PBS (pH = 7.2) for a concentration of 0.15 IU/L. Subsequently, inhibitors (40 μL) and PBS (145 μL) were added into the 96-well plates, followed by the addition of substrate (5 μL) and enzyme (10 μL). After incubation at 37 °C for 30 min, the absorbance values were measured at 405 nm with a plate reader (Varioskan, Thermo Fisher Scientific, Waltham, MA, USA).

| SMILES | IC50 [1] [nM] | melting point [°C] |
| --- | --- | --- |
| NC(=O)N1N=C(c2ccccc2I)CC1c1cccc(Br)c1OCC(=O)NO (centres unmarked) [Compound 14r, 5-(3-Bromo-2-(2-(hydroxyamino)-2-oxoethoxy)phenyl)-3-(2-iodophenyl)-4,5-dihydro-1H-pyrazole-1-carboxamide] | 3400 ± 300 | 140 to 142 |
| CC(=O)N1N=C(c2ccccc2I)CC1c1ccc(Br)cc1OCC(=O)NO (centres unmarked) [Compound 14s, 2-(2-(1-Acetyl-3-(2-iodophenyl)-4,5-dihydro-1H-pyrazol-5-yl)-5-bromophenoxy)-N-hydroxyacetamide] | 2100 ± 200 | 168 to 170 |
| COc1ccccc1C1=NN(C(C)=O)C(c2ccccc2OCC(=O)NO)C1 (centres unmarked) [Compound 14d, 2-(2-(1-Acetyl-3-(2-methoxyphenyl)-4,5-dihydro-1H-pyrazol-5-yl)phenoxy)-N-hydroxy acetamide] | 320 ± 10 | 170 to 172 |
| CC(=O)N1N=C(c2ccc(Cl)cc2Cl)CC1c1ccccc1OCC(=O)NO (centres unmarked) [Compound 14l, 2-(2-(1-Acetyl-3-(2,4-dichlorophenyl)-4,5-dihydro-1H-pyrazol-5-yl)phenoxy)-N-hydroxyacetamide] | 580 ± 40 | 128 to 130 |
| NC(=O)N1N=C(c2ccccc2OCc2ccc(Br)cc2)CC1c1ccccc1OCC(=O)NO (centres unmarked) [Compound 14hh, 3-(2-((4-Bromobenzyl)oxy)phenyl)-5-(2-(2-(hydroxyamino)-2-oxoethoxy)phenyl)-4,5-dihydro-1H-pyrazole-1-carboxamide] | 550 ± 40 | 96 to 98 |
| CC(=O)N1N=C(c2ccc(Br)cc2)CC1c1ccccc1OCC(=O)NO (centres unmarked) [Compound 14c, 2-(2-(1-Acetyl-3-(4-bromophenyl)-4,5-dihydro-1H-pyrazol-5-yl)phenoxy)-N-hydroxy acetamide] | 4400 ± 300 | 202 to 204 |
| CC(=O)N1N=C(c2ccccc2OCc2ccc(Br)cc2)CC1c1ccccc1OCC(=O)NO (centres unmarked) [Compound 14gg, 2-(2-(1-Acetyl-3-(2-((4-bromobenzyl)oxy)phenyl)-4,5-dihydro-1H-pyrazol-5-yl)phenoxy)-N-hydroxyacetamide] | 560 ± 40 | 96 to 98 |
| NC(=O)N1N=C(c2ccccc2I)CC1c1ccc(Br)cc1OCC(=O)NO (centres unmarked) [Compound 14t, 5-(4-Bromo-2-(2-(hydroxyamino)-2-oxoethoxy)phenyl)-3-(2-iodophenyl)-4,5-dihydro-1H-pyrazole-1-carboxamide] | 1600 ± 100 | 196 to 198 |
| CC(=O)N1N=C(c2ccccc2I)CC1c1cccc(Br)c1OCC(=O)NO (centres unmarked) [Compound 14q, 2-(2-(1-Acetyl-3-(2-iodophenyl)-4,5-dihydro-1H-pyrazol-5-yl)-6-bromophenoxy)-N-hydroxyacetamide] | 3500 ± 200 | 96 to 98 |
| NC(=O)N1N=C(c2ccccc2)CC1c1ccccc1OCC(=O)NO (centres unmarked) [Compound 13b, reference compound] | 160 ± 10 | – |
| CC(=O)N1N=C(c2ccccc2)CC1c1ccccc1OCC(=O)NO (centres unmarked) [Compound 13a, reference compound] | 320 ± 10 | – |
| CC(=O)N1N=C(c2ccccc2I)CC1c1cc(Br)ccc1OCC(=O)NO (centres unmarked) [Compound 14u, 2-(2-(1-Acetyl-3-(2-iodophenyl)-4,5-dihydro-1H-pyrazol-5-yl)-4-bromophenoxy)-N-hydroxyacetamide] | 370 ± 20 | 106 to 108 |
| COc1cccc(OC)c1C1=NN(C(N)=O)C(c2ccccc2OCC(=O)NO)C1 (centres unmarked) [Compound 14n, 3-(2,6-Dimethoxyphenyl)-5-(2-(2-(hydroxyamino)-2-oxoethoxy)phenyl)-4,5-dihydro-1H-pyrazole-1-carboxamide] | 440 ± 30 | 212 to 214 |
| COc1cccc(C2=NN(C(C)=O)C(c3ccccc3OCC(=O)NO)C2)c1 (centres unmarked) [Compound 14e, 2-(2-(1-Acetyl-3-(3-methoxyphenyl)-4,5-dihydro-1H-pyrazol-5-yl)phenoxy)-N-hydroxy acetamide] | 370 | 170 to 172 |

Further molecules by falling IC50 [1], results first:

| IC50 [1] [nM] | melting point [°C] | SMILES |
| --- | --- | --- |
| 250 ± 10 | 176 to 178 | CC(=O)N1N=C(c2ccccc2F)CC1c1ccccc1OCC(=O)NO (centres unmarked) [Compound 14g, 2-(2-(1-Acetyl-3-(2-fluorophenyl)-4,5-dihydro-1H-pyrazol-5-yl)phenoxy)-N-hydroxy acetamide] |
| 230 ± 10 | 92 to 94 | NC(=O)N1N=C(c2ccccc2OCc2ccccc2Br)CC1c1ccccc1OCC(=O)NO (centres unmarked) [Compound 14dd, 3-(2-((2-Bromobenzyl)oxy)phenyl)-5-(2-(2-(hydroxyamino)-2-oxoethoxy)phenyl)-4,5-dihydro-1H-pyrazole-1-carboxamide] |
| 210 ± 10 | 170 to 172 | CC(=O)N1N=C(c2ccccc2C)CC1c1ccccc1OCC(=O)NO (centres unmarked) [Compound 14k, 2-(2-(1-Acetyl-3-(o-tolyl)-4,5-dihydro-1H-pyrazol-5-yl)phenoxy)-N-hydroxyacetamide] |
| 90 ± 5 | 132 to 134 | NC(=O)N1N=C(c2ccccc2I)CC1c1c(Br)cccc1OCC(=O)NO (centres unmarked) [Compound 14x, 5-(2-Bromo-6-(2-(hydroxyamino)-2-oxoethoxy)phenyl)-3-(2-iodophenyl)-4,5-dihydro-1H-pyrazole-1-carboxamide] |
| 70 ± 3 | 190 to 192 | NC(=O)N1N=C(c2ccccc2I)CC1c1c(Cl)cccc1OCC(=O)NO (centres unmarked) [Compound 14z, 5-(2-Chloro-6-(2-(hydroxyamino)-2-oxoethoxy)phenyl)-3-(2-iodophenyl)-4,5-dihydro-1H-pyrazole-1-carboxamide] |
| 59 ± 2 | – | NC(=O)N1N=C(c2c(Cl)cccc2Cl)CC1c1ccccc1OCC(=O)NO (centres unmarked) [Compound 13c, reference compound] |
| 44 ± 3 | 164 to 166 | NC(=O)N1N=C(c2ccccc2I)CC1c1ccccc1OCC(=O)NO (centres unmarked) [Compound 14j, 5-(2-(2-(Hydroxyamino)-2-oxoethoxy)phenyl)-3-(2-iodophenyl)-4,5-dihydro-1H-pyrazole-1-carboxamide] |
| 24 ± 1 | 152 to 154 | CC(=O)N1N=C(c2ccccc2I)CC1c1c(Br)cccc1OCC(=O)NO (centres unmarked) [Compound 14w, 2-(2-(1-Acetyl-3-(2-iodophenyl)-4,5-dihydro-1H-pyrazol-5-yl)-3-bromophenoxy)-N-hydroxyacetamide] |
| 17 ± 1 | 162 to 164 | CC(=O)N1N=C(c2ccccc2OCc2ccccc2)CC1c1ccccc1OCC(=O)NO (centres unmarked) [Compound 14aa, 2-(2-(1-Acetyl-3-(2-(benzyloxy)phenyl)-4,5-dihydro-1H-pyrazol-5-yl)phenoxy)-N-hydroxyacetamide] |
| 15 ± 1 | 176 to 178 | NC(=O)N1N=C(c2ccccc2OCc2ccccc2)CC1c1ccccc1OCC(=O)NO (centres unmarked) [Compound 14bb, 3-(2-(Benzyloxy)phenyl)-5-(2-(2-(hydroxyamino)-2-oxoethoxy)phenyl)-4,5-dihydro-1H-pyrazole-1-carboxamide] |
| 15 ± 1 | 174 to 176 | CC(=O)N1N=C(c2ccccc2I)CC1c1ccccc1OCC(=O)NO (centres unmarked) [Compound 14i, 2-(2-(1-Acetyl-3-(2-iodophenyl)-4,5-dihydro-1H-pyrazol-5-yl)phenoxy)-N-hydroxy acetamide] |
